Values after ≈ are worked out from the molar mass of the structure shown.
How the values were obtained:
[1] = system: Cryptococcus neoformans; assay: Antifungal activity against Cryptococcus neoformans H99 assessed as reduction in fungal growth incubated for 72 hrs by CLSI based broth microdilution method; format: functional
[2] = system: Candida albicans; assay: Antifungal activity against Candida albicans ATCC SC5314 assessed as reduction in fungal growth incubated for 48 hrs by CLSI based broth microdilution method; format: functional
[3] = system: Nakaseomyces glabratus; assay: Antifungal activity against Candida glabrata BG2 assessed as reduction in fungal growth incubated for 48 hrs by CLSI based broth microdilution method; format: functional
[4] = system: Aspergillus fumigatus; assay: Antifungal activity against Aspergillus fumigatus AF293 assessed as reduction in fungal growth incubated for 48 hrs by CLSI based broth microdilution method; format: functional
[5] = Stability in human liver microsomes assessed as parent compound remaining after 30 mins; format: ADME, Microsome; settings: read-out: Stability

Compound | MIC [1] [µg/mL] | MIC [2] [µg/mL] | MIC [3] [µg/mL] | MIC [4] [µg/mL] | remaining at 0.5 h [5] [%]
CCC(N)C(=O)NCCc1ccc(-c2ccc(OC(F)(F)F)cc2)cc1.Cl (racemic) | 16 | 16 | 16 | 32 | 
CC(NCCc1ccc(OCc2ccc(Cl)cc2Cl)cc1)C(N)=O.CS(=O)(=O)O (racemic) | 8 | 32 | 32 | 32 | 
CC(NCCc1ccc(OCc2cccc(F)c2)cc1)C(N)=O.CS(=O)(=O)O (racemic) | 64 | > 128 | > 128 | > 128 | 
CCC(NC)C(=O)NCCc1ccc(-c2ccc(OC(F)(F)F)cc2)cc1.Cl (racemic) | 16 | 32 | 32 | 32 | 
Cl.O=C(NCCc1ccc(-c2ccc(Cl)c(Cl)c2)cc1)C1CCCCN1 (racemic) | 8 | 16 | 16 | 16 | 
CCCC(N)C(=O)NCCc1ccc(-c2ccc(F)c(F)c2)cc1.Cl (racemic) | 32 | 16 | 64 | 64 | > 85
CCCC(N)C(=O)NCCc1ccc(OCc2ccc(Cl)c(Cl)c2)cc1.Cl (racemic) | 8 | 8 | 16 | 16 | 
CCCC(NC)C(=O)NCCc1ccc(OCc2ccc(C(F)(F)F)cc2)cc1.Cl (racemic) | 16 | 64 | 64 | 64 | 
CCCC(N)C(=O)NCCc1ccc(Oc2ccc(C(F)(F)F)cc2)cc1.Cl (racemic) | 16 | 32 | 32 | 32 | 
CCC(NC)C(=O)NCCc1ccc(-c2ccc(Cl)c(Cl)c2)cc1.Cl (racemic) | 8 | 16 | 16 | 16 | 
CCCC(N)C(=O)NCCc1ccc(-c2ccc(OC(F)(F)F)cc2)cc1.Cl (racemic) | 4 | 8 | 16 | 16 | 
CC(NCCc1ccc(-c2ccc(OC(F)(F)F)cc2)cc1)C(N)=O.CS(=O)(=O)O (racemic) | 16 | 36 | > 128 | > 128 | 
CN1CCCCC1C(=O)NCCc1ccc(-c2ccc(Cl)c(Cl)c2)cc1 (racemic) | 8 (≈ 20.4 µM) | 128 (≈ 327 µM) | 16 (≈ 40.9 µM) | 16 (≈ 40.9 µM) | 
Cl.O=C(NCCc1ccc(-c2ccc(C(F)(F)F)cc2)cc1)C1CCCN1 (racemic) | 16 | 32 | 32 | 32 | 
CC(NCCc1ccc(OCc2ccc(C(F)(F)F)cc2)cc1)C(N)=O.CS(=O)(=O)O (racemic) | 32 | 128 | 128 | 64 | 
O=C(NCCc1ccc(-c2ccc(Cl)c(Cl)c2)cc1)c1cccnc1 | 128 (≈ 345 µM) | 128 (≈ 345 µM) | 128 (≈ 345 µM) | 128 (≈ 345 µM) | 
CCCCC(N)C(=O)NCCc1ccc(-c2ccc(OC(F)(F)F)cc2)cc1.Cl (racemic) | 4 | 8 | 8 | 8 | 
CCC(N)C(=O)NCCc1ccc(-c2ccc(F)c(F)c2)cc1.Cl (racemic) | 64 | 32 | 64 | 64 | 
CCCCC(NC)C(=O)NCCc1ccc(-c2ccc(OC(F)(F)F)cc2)cc1.Cl (racemic) | 4 | 16 | 16 | 8 | 
CC(NCCc1ccc(-c2ccc(C(F)(F)F)cc2)cc1)C(N)=O.CS(=O)(=O)O (racemic) | 32 | 128 | 64 | 32 | 
CC(NCCc1ccc(-c2ccc(Cl)c(Cl)c2)cc1)C(N)=O.CS(=O)(=O)O (racemic) | 8 | 16 | 16 | 8 | 
CC(NCCc1ccc(-c2cccc(OC(F)(F)F)c2)cc1)C(N)=O.CS(=O)(=O)O (racemic) | 32 | > 128 | 64 | 16 | 
CCC(N)C(=O)NCCc1ccc(-c2ccc(C(F)(F)F)cc2)cc1.Cl (racemic) | 16 | 16 | 16 | 32 | 
CC(NCCc1ccc(OCc2ccc(F)cc2)cc1)C(N)=O.CS(=O)(=O)O (racemic) | 128 | > 128 | > 128 | > 128 | 
CC(=O)N1CCC(C(=O)NCCc2ccc(-c3ccc(C(F)(F)F)cc3)cc2)C1 (racemic) | > 128 | > 128 | > 128 | > 128 | 
CC(NCCc1ccc(OCc2ccc(Cl)c(Cl)c2)cc1)C(N)=O.CS(=O)(=O)O (racemic) | 8 | 32 | 32 | 32 | 

Compound | MIC [1] [µg/mL] | MIC [2] [µg/mL] | MIC [3] [µg/mL] | MIC [4] [µg/mL] | remaining at 0.5 h [5] [%]
CC(NCCc1ccc(OCc2ccc(Cl)cc2)cc1)C(N)=O.CS(=O)(=O)O (racemic) | 64 | > 128 | > 128 | > 128 | 
CC(C)(NCCc1ccc(OCc2cccc(F)c2)cc1)C(N)=O.CS(=O)(=O)O | 128 | > 128 | > 128 | > 128 | 
CC(NCCc1ccc(OCc2ccccc2C(F)(F)F)cc1)C(N)=O.CS(=O)(=O)O (racemic) | 64 | > 128 | > 128 | 64 | 
Cl.O=C(NCCc1ccc(-c2ccc(C(F)(F)F)cc2)cc1)C1CCNC1 (racemic) | 64 | 32 | 64 | 64 | 
CN1CCCC1C(=O)NCCc1ccc(-c2ccc(Cl)c(Cl)c2)cc1 (racemic) | 8 (≈ 21.2 µM) | 128 (≈ 339 µM) | 16 (≈ 42.4 µM) | 16 (≈ 42.4 µM) | 
CCCC(N)C(=O)NCCc1ccc(Oc2ccc(Cl)c(Cl)c2)cc1.Cl (racemic) | 8 | 16 | 16 | 16 | 
CCC(NC)C(=O)NCCc1ccc(-c2ccc(C(F)(F)F)cc2)cc1.Cl (racemic) | 16 | 32 | 64 | 64 | 
CC(NCCc1ccc(OCc2cccc(Cl)c2)cc1)C(N)=O.CS(=O)(=O)O (racemic) | 32 | 128 | > 128 | 128 | 
CC(NCCc1ccc(Oc2ccc(Cl)c(Cl)c2)cc1)C(N)=O.CS(=O)(=O)O (racemic) | 8 | 32 | 32 | 32 | 
COc1cccc(COc2ccc(CCNC(C)C(N)=O)cc2)c1.CS(=O)(=O)O (racemic) | 128 | 128 | > 128 | > 128 | 
CCCCC(N)C(=O)NCCc1ccc(-c2ccc(F)c(F)c2)cc1.Cl (racemic) | 16 | 16 | 32 | 32 | 
CCCCC(NC)C(=O)NCCc1ccc(-c2ccc(C(F)(F)F)cc2)cc1.Cl (racemic) | 4 | 16 | 16 | 16 | 
CCCC(NC)C(=O)NCCc1ccc(-c2ccc(OC(F)(F)F)cc2)cc1.Cl (racemic) | 8 | 32 | 128 | 16 | 
CC(NCCc1ccc(OCc2ccccc2Cl)cc1)C(N)=O.CS(=O)(=O)O (racemic) | 32 | > 128 | > 128 | 128 | 
CCCCC(N)C(=O)NCCc1ccc(-c2ccc(C(F)(F)F)cc2)cc1.Cl (racemic) | 4 | 8 | 8 | 8 | 
CC(=O)N1CCCC1C(=O)NCCc1ccc(-c2ccc(C(F)(F)F)cc2)cc1 (racemic) | > 128 | > 128 | > 128 | > 128 | 
CC(NCCc1ccc(Oc2ccc(C(F)(F)F)cc2)cc1)C(N)=O.CS(=O)(=O)O (racemic) | 32 | 128 | 128 | 64 | 
CCCC(NC)C(=O)NCCc1ccc(OCc2ccc(Cl)c(Cl)c2)cc1.Cl (racemic) | 8 | 32 | 32 | 32 | 
Nc1ncccc1C(=O)NCCc1ccc(-c2ccc(Cl)c(Cl)c2)cc1 | 128 (≈ 331 µM) | 128 (≈ 331 µM) | 128 (≈ 331 µM) | 128 (≈ 331 µM) | 
CC(C)(NCCc1ccc(OCc2cccc(C(F)(F)F)c2)cc1)C(N)=O.CS(=O)(=O)O | 64 | 128 | 128 | 128 | 
Cl.O=C(NCCc1ccc(-c2ccc(Cl)c(Cl)c2)cc1)C1CCCN1 (centres undefined) | 8 | 16 | 16 | 16 | 
CC(NCCc1ccc(OCc2ccccc2F)cc1)C(N)=O.CS(=O)(=O)O (centres undefined) | 128 | > 128 | > 128 | > 128 | 
CCC(N)C(=O)NCCc1ccc(-c2ccc(Cl)c(Cl)c2)cc1.Cl (racemic) | 8 | 8 | 16 | 16 | 
CC(C)(NCCc1ccc(OCc2ccc(C(F)(F)F)cc2)cc1)C(N)=O.CS(=O)(=O)O | 64 | 128 | 128 | 128 | 
CC(NCCc1ccc(OCc2cccc(C(F)(F)F)c2)cc1)C(N)=O.CS(=O)(=O)O (racemic) | 32 | 128 | 128 | 64 | 
CCCC(N)C(=O)NCCc1ccc(-c2ccc(C(F)(F)F)cc2)cc1.Cl (racemic) | 8 | 8 | 16 | 16 | 

From ChEMBL document CHEMBL5030558, “Optimization and Evaluation of Novel Antifungal Agents for the Treatment of Fungal Infection” (J Med Chem, 2021)
